Test results reported in ChEMBL document CHEMBL5052819, “Peptide targeting gip and glp-2 receptors for treating bone disorders” (2020).
Calls of active or inactive are those of the source. The rule behind the calls is not given here.

Columns and labels:
Mus musculus [1] = test: Anti-osteoporosis activity in ovariectomized BALB/c mouse at 100 microg/kg, iv assessed as increase in mineral crystallinity heterogeneity; assay type: functional; details: dose 100 µg/kg
Mus musculus [2] = test: Anti-osteoporosis activity in ovariectomized BALB/c mouse at 100 microg/kg, iv assessed as increase in trabecular bone mass; assay type: functional; details: dose 100 µg/kg
Mus musculus [3] = test: Anti-osteoporosis activity in ovariectomized BALB/c mouse at 100 microg/kg, iv assessed as reduction in trabecular bone stiffness; assay type: functional, organism-based; details: dose 100.0 µg/kg
Mus musculus [4] = test: Anti-osteoporosis activity in ovariectomized BALB/c mouse at 100 microg/kg, iv assessed as increase in trabecular number; assay type: functional; details: dose 100 µg/kg
[5] = Toxicity in ovariectomized BALB/c mouse assessed as effect on body mass at 100 microg/kg, iv; details: in vivo, 0.1 mg/kg, dose 100 µg/kg
Mus musculus [6] = test: Anti-osteoporosis activity in ovariectomized BALB/c mouse at 100 microg/kg, iv assessed as effect on cortical bone microarchitecture; assay type: functional, organism-based; details: dose 100.0 µg/kg
Mus musculus [7] = test: Anti-osteoporosis activity in ovariectomized BALB/c mouse at 100 nmol/kg, sc assessed as decrease in mean phosphate/amide ratio; assay type: functional; parameters: scale not given: the % may be the effect or the level left
RAW264.7 = test: Inhibition of RANKL-induced osteoclastogenesis in mouse RAW264.7 cells measured after 110 hrs by TRAcP staining based assay; assay type: functional, cell-based; details: RAW264.7, 110 h
Mus musculus [8] = test: Anti-osteoporosis activity in ovariectomized BALB/c mouse at 100 nmol/kg/day, sc assessed as increase in work-to-fracture of cortical bone; assay type: functional
[9] = Toxicity in ovariectomized BALB/c mouse at 25 nmol/kg, sc assessed as effect on morphological changes in liver; assay type: organism-based; details: in vivo
Mus musculus [10] = test: Anti-osteoporosis activity in ovariectomized BALB/c mouse at 100 nmol/kg/day, sc assessed as increase in post-yield displacement of cortical bone; assay type: functional
Mus musculus [11] = test: Anti-osteoporosis activity in ovariectomized BALB/c mouse at 25 to 100 nmol/kg/day, sc assessed as reduction in trabecular bone stiffness; assay type: functional, organism-based; details: dose 25-100 nmol/kg
Mus musculus [12] = test: Anti-osteoporosis activity in ovariectomized BALB/c mouse at 100 nmol/kg, sc assessed as decrease in augmented acid phosphate content heterogeneity; assay type: functional; parameters: scale not given: the % may be the effect or the level left
[13] = Toxicity in ovariectomized BALB/c mouse at 25 nmol/kg, sc assessed as effect on morphological changes in pancreas; assay type: organism-based; details: in vivo
Mus musculus [14] = test: Anti-osteoporosis activity in ovariectomized BALB/c mouse at 25 to 100 nmol/kg/day, sc assessed as effect on cortical bone microarchitecture; assay type: functional, organism-based; details: dose 25-100 nmol/kg
Mus musculus [15] = test: Anti-osteoporosis activity in ovariectomized BALB/c mouse at 25 nmol/kg, sc assessed as reduction in trabecular spacing; assay type: functional; parameters: scale not given: the % may be the effect or the level left
Mus musculus [16] = test: Anti-osteoporosis activity in ovariectomized BALB/c mouse at 100 nmol/kg/day, sc assessed as increase in ultimate displacement of cortical bone; assay type: functional

Compound	Activity (Mus musculus [1])	Activity (Mus musculus [2])	Activity (Mus musculus [3])	Activity (Mus musculus [4])	Activity [5]	Activity (Mus musculus [6])	Activity (Mus musculus [7])	IC50 (RAW264.7)	Activity (Mus musculus [8])	Activity [9]	Activity (Mus musculus [10])	Activity (Mus musculus [11])	Activity (Mus musculus [12])	Activity [13]	Activity (Mus musculus [14])	Activity (Mus musculus [15])	Activity (Mus musculus [16])
O.O=P(O)(O)C(O)(Cn1ccnc1)P(=O)(O)O [ZOLEDRONIC ACID]	21%	15%	Active	12%	Non-Toxic	inactive											
CC[C@H](C)[C@H](NC(=O)[C@H](CO)NC(=O)[C@H](Cc1ccccc1)NC(=O)[C@H](CC(=O)O)NC(=O)[C@H](CO)NC(=O)CNC(=O)[C@H](Cc1ccccc1)NC(=O)[C@H](CO)NC(=O)CNC(=O)[C@H](CCC(=O)O)NC(=O)CNC(=O)[C@@H](N)Cc1cnc[nH]1)C(=O)N[C@@H](C)C(=O)N[C@@H](CC(C)C)C(=O)N[C@@H](CC(=O)O)C(=O)N[C@@H](CCCCN)C(=O)N[C@@H](CC(C)C)C(=O)N[C@@H](C)C(=O)N[C@@H](C)C(=O)N[C@@H](CCCNC(=N)N)C(=O)N[C@@H](CC(=O)O)C(=O)N[C@@H](Cc1ccccc1)C(=O)N[C@H](C(=O)N[C@@H](CC(N)=O)C(=O)N[C@@H](Cc1c[nH]c2ccccc12)C(=O)N[C@@H](CC(C)C)C(=O)N[C@@H](CC(C)C)C(=O)N[C@@H](CCC(N)=O)C(=O)N[C@H](C(=O)N[C@@H](CCCCN)C(N)=O)[C@@H](C)O)C(C)C							5%	0.036 nM	33%	Non-Toxic	62%	Active	18%	Non-Toxic	inactive	17%	33%
